Test results published in the supplement of paper PMC10307832.

Legend:
Experiment in all cases: relative viability (nuclei count vs DMSO), 5 days (fraction); higher = more cells survive
Dinaciclib + OSI-027 = compound: CCc1cnn2c(NCc3ccc[n+]([O-])c3)cc(N3CCCC[C@H]3CCO)nc12 [Dinaciclib] + COc1cccc2cc(-c3nc([C@H]4CC[C@H](C(=O)O)CC4)n4ncnc(N)c34)[nH]c12 [OSI-027] (partner 0.5 µM)
How it was run: (§1)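 Lung cancer cell lines in 1536-well plates were dosed by pin tool the day after seeding, either with one drug alone or with a fixed anchor-drug dose plus five library-drug doses (not always all listed) in √10 steps. After 5 days, cells were fixed and their nuclei stained in one step (final 0.05% Triton X-100, 1% formaldehyde, 1 ug/ml Hoechst), then counted on 4× images. Relative viability is the nuclei count in treated wells divided by that in vehicle wells. Values are medians of duplicate plates.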

Dinaciclib + Trametinib = compound: CCc1cnn2c(NCc3ccc[n+]([O-])c3)cc(N3CCCC[C@H]3CCO)nc12 [Dinaciclib] + CC(=O)Nc1cccc(-n2c(=O)n(C3CC3)c(=O)c3c(Nc4ccc(I)cc4F)n(C)c(=O)c(C)c32)c1 [Trametinib] (partner 0.02 µM)
How it was run: as §1

Dinaciclib + Vorinostat = compound: CCc1cnn2c(NCc3ccc[n+]([O-])c3)cc(N3CCCC[C@H]3CCO)nc12 [Dinaciclib] + O=C(CCCCCCC(=O)Nc1ccccc1)NO [Vorinostat] (partner 1 µM)
How it was run: as §1

Dinaciclib + AZD7762 = compound: CCc1cnn2c(NCc3ccc[n+]([O-])c3)cc(N3CCCC[C@H]3CCO)nc12 [Dinaciclib] + NC(=O)Nc1cc(-c2cccc(F)c2)sc1C(=O)N[C@H]1CCCNC1 [AZD7762] (partner 0.2 µM)
How it was run: as §1

Dinaciclib + Luminespib = compound: CCc1cnn2c(NCc3ccc[n+]([O-])c3)cc(N3CCCC[C@H]3CCO)nc12 [Dinaciclib] + CCNC(=O)c1noc(-c2cc(C(C)C)c(O)cc2O)c1-c1ccc(CN2CCOCC2)cc1 [Luminespib] (partner 0.01 µM)
How it was run: as §1

Row | Cell Line | relative viability (Dinaciclib + OSI-027; first compound 0.009487 µM) | relative viability (Dinaciclib + OSI-027; first compound 0.03 µM) | relative viability (Dinaciclib + OSI-027; first compound 0.09487 µM) | relative viability (Dinaciclib + OSI-027; first compound 0.3 µM) | relative viability (Dinaciclib + Trametinib; first compound 0.009487 µM) | relative viability (Dinaciclib + Trametinib; first compound 0.03 µM) | relative viability (Dinaciclib + Trametinib; first compound 0.09487 µM) | relative viability (Dinaciclib + Trametinib; first compound 0.3 µM) | relative viability (Dinaciclib + Vorinostat; first compound 0.009487 µM) | relative viability (Dinaciclib + Vorinostat; first compound 0.03 µM) | relative viability (Dinaciclib + Vorinostat; first compound 0.09487 µM) | relative viability (Dinaciclib + Vorinostat; first compound 0.3 µM) | relative viability (Dinaciclib + AZD7762; first compound 0.009487 µM) | relative viability (Dinaciclib + AZD7762; first compound 0.03 µM) | relative viability (Dinaciclib + AZD7762; first compound 0.09487 µM) | relative viability (Dinaciclib + AZD7762; first compound 0.3 µM) | relative viability (Dinaciclib + Luminespib; first compound 0.009487 µM) | relative viability (Dinaciclib + Luminespib; first compound 0.03 µM) | relative viability (Dinaciclib + Luminespib; first compound 0.09487 µM) | relative viability (Dinaciclib + Luminespib; first compound 0.3 µM)
1 | HCC-366 | 0.924 | 0.0747 | 0.0323 | 0.0369 | 0.274 | 0.0898 | 0.0214 | 0.0233 | 0.193 | 0.0415 | 0.0286 | 0.0247 | 0.406 | 0.0244 | 0.0268 | 0.0232 | – | – | – | –
2 | HCC-827 | 0.887 | 0.565 | 0.129 | 0.116 | 0.511 | 0.186 | 0.12 | 0.135 | 1 | 0.747 | 0.123 | 0.159 | 0.243 | 0.162 | 0.105 | 0.143 | 0.805 | 0.108 | 0.103 | 0.107
3 | HOP-62 | 0.72 | 0.446 | 0.139 | 0.0825 | 0.492 | 0.361 | 0.0804 | 0.0808 | 0.543 | 0.0919 | 0.0742 | 0.0609 | 0.706 | 0.225 | 0.0545 | 0.068 | 0.778 | 0.193 | 0.0765 | 0.0749
4 | IA-LM | – | – | – | – | – | – | – | – | 0.973 | 0.547 | 0.0376 | 0.0379 | – | – | – | – | – | – | – | –
5 | LC-2-ad | 0.58 | 0.251 | 0.247 | 0.227 | 0.921 | 0.405 | 0.148 | 0.15 | 0.685 | 0.17 | 0.108 | 0.108 | 0.87 | 0.118 | 0.11 | 0.128 | 0.877 | 0.23 | 0.23 | 0.178
6 | LCLC-97TM1 | 0.298 | 0.167 | 0.122 | 0.113 | 0.216 | 0.0795 | 0.0706 | 0.0687 | 0.56 | 0.0645 | 0.0617 | 0.0592 | 0.385 | 0.0625 | 0.0497 | 0.0774 | 0.459 | 0.111 | 0.116 | 0.109
7 | LCLC-103H | 0.451 | 0.483 | 0.111 | 0.109 | 0.674 | 0.659 | 0.255 | 0.249 | 0.777 | 0.505 | 0.178 | 0.197 | 0.881 | 0.351 | 0.279 | 0.197 | 1.08 | 0.473 | 0.12 | 0.102
8 | NCI-H520 | 0.277 | 0.179 | 0.19 | 0.156 | 0.506 | 0.104 | 0.0836 | 0.104 | 0.531 | 0.153 | 0.15 | 0.138 | – | – | – | – | 0.239 | 0.231 | 0.222 | 0.217
9 | NCI-H661 | 0.637 | 0.163 | 0.168 | 0.168 | 0.512 | 0.162 | 0.17 | 0.161 | 0.804 | 0.235 | 0.211 | 0.211 | – | – | – | – | 0.906 | 0.195 | 0.169 | 0.148
10 | NCI-H1563 | 0.795 | 0.416 | 0.297 | 0.27 | – | – | – | – | – | – | – | – | – | – | – | – | 0.526 | 0.272 | 0.177 | 0.128
11 | NCI-H1650 | 0.426 | 0.15 | 0.136 | 0.123 | 0.516 | 0.163 | 0.151 | 0.119 | 0.798 | 0.175 | 0.119 | 0.125 | – | – | – | – | 0.226 | 0.204 | 0.158 | 0.172
12 | NCI-H1703 | – | – | – | – | – | – | – | – | – | – | – | – | 0.132 | 0.125 | 0.0862 | 0.087 | – | – | – | –
13 | NCI-H1792 | 0.729 | 0.539 | 0.36 | 0.174 | 0.432 | 0.361 | 0.0776 | 0.0462 | – | – | – | – | 0.585 | 0.0463 | 0.032 | 0.0288 | 0.422 | 0.225 | 0.117 | 0.0889
14 | NCI-H2009 | 0.528 | 0.0935 | 0.11 | 0.107 | 0.288 | 0.0748 | 0.0773 | 0.0564 | 0.806 | 0.202 | 0.0818 | 0.0781 | – | – | – | – | 0.649 | 0.0986 | 0.101 | 0.101
15 | NCI-H2023 | 0.395 | 0.0919 | 0.052 | 0.067 | 0.382 | 0.078 | 0.0799 | 0.0821 | 0.678 | 0.08 | 0.0556 | 0.0518 | – | – | – | – | 0.561 | 0.058 | 0.055 | 0.0469
16 | NCI-H2228 | 0.522 | 0.167 | 0.0767 | 0.124 | 0.496 | 0.11 | 0.0915 | 0.116 | 0.749 | 0.213 | 0.131 | 0.136 | – | – | – | – | 0.147 | 0.127 | 0.116 | 0.0939
17 | SK-LU-1 | 0.425 | 0.116 | 0.145 | 0.112 | 0.517 | 0.176 | 0.205 | 0.186 | 0.65 | 0.241 | 0.233 | 0.208 | – | – | – | – | 0.198 | 0.138 | 0.115 | 0.118
18 | SK-MES-1 | 0.559 | 0.13 | 0.136 | 0.149 | 0.536 | 0.175 | 0.192 | 0.178 | 1.23 | 0.156 | 0.161 | 0.148 | – | – | – | – | 0.428 | 0.131 | 0.167 | 0.152
19 | SW 1573 | 0.372 | 0.0612 | 0.0644 | 0.0645 | 0.404 | 0.0877 | 0.0832 | 0.0755 | 0.444 | 0.071 | 0.0779 | 0.0742 | – | – | – | – | 0.126 | 0.0666 | 0.0548 | 0.0868
20 | UMC-11 | 0.267 | 0.203 | 0.177 | 0.153 | 0.253 | 0.172 | 0.132 | 0.146 | 0.229 | 0.174 | 0.167 | 0.167 | – | – | – | – | 0.271 | 0.177 | 0.158 | 0.174
